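How tested: cells in 96-well plates exposed to compound for 48 hours at five concentrations. Here, GI50 denotes the concentration required for 50% inhibition of growth. TGI denotes the concentration required for complete inhibition of growth.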
Legend:
Assay in all cases: NCI anticancer screen, dose series, 48 h
UACC-257 melanoma = system: UACC-257 melanoma
MALME-3M melanoma = system: MALME-3M melanoma
NCI-H460 lung = system: NCI-H460 lung
T-47D breast = system: T-47D breast
HT29 colon = system: HT29 colon
NCI-H522 lung = system: NCI-H522 lung
KM12 colon = system: KM12 colon
OVCAR-3 ovarian = system: OVCAR-3 ovarian
CCRF-CEM leukemia = system: CCRF-CEM leukemia
U251 CNS = system: U251 CNS
786-0 renal = system: 786-0 renal
HS 578T breast = system: HS 578T breast
SNB-75 CNS = system: SNB-75 CNS
OVCAR-5 ovarian = system: OVCAR-5 ovarian
HCT-116 colon = system: HCT-116 colon
SN12C renal = system: SN12C renal
M14 melanoma = system: M14 melanoma
RXF 393 renal = system: RXF 393 renal
HCC-2998 colon = system: HCC-2998 colon
SNB-19 CNS = system: SNB-19 CNS
SF-295 CNS = system: SF-295 CNS
LOX IMVI melanoma = system: LOX IMVI melanoma
OVCAR-8 ovarian = system: OVCAR-8 ovarian
HOP-62 NSCLC = system: HOP-62 NSCLC
OVCAR-4 ovarian = system: OVCAR-4 ovarian
ACHN renal = system: ACHN renal
SK-MEL-28 melanoma = system: SK-MEL-28 melanoma
CAKI-1 renal = system: CAKI-1 renal
HOP-92 NSCLC = system: HOP-92 NSCLC
PC-3 prostate = system: PC-3 prostate
SR leukemia = system: SR leukemia
NCI/ADR-RES ovarian = system: NCI/ADR-RES ovarian
IGROV1 ovarian = system: IGROV1 ovarian
SF-539 CNS = system: SF-539 CNS
RPMI-8226 leukemia = system: RPMI-8226 leukemia
UACC-62 melanoma = system: UACC-62 melanoma
SF-268 CNS = system: SF-268 CNS
HCT-15 colon = system: HCT-15 colon
COLO 205 colon = system: COLO 205 colon
EKVX NSCLC = system: EKVX NSCLC
A498 renal = system: A498 renal
BT-549 breast = system: BT-549 breast
A549 NSCLC = system: A549 NSCLC
UO-31 renal = system: UO-31 renal
SK-MEL-5 melanoma = system: SK-MEL-5 melanoma
SK-OV-3 ovarian = system: SK-OV-3 ovarian
SK-MEL-2 melanoma = system: SK-MEL-2 melanoma
MCF7 breast = system: MCF7 breast
NCI-H226 lung = system: NCI-H226 lung
MDA-MB-231 breast = system: MDA-MB-231 breast
DU-145 prostate = system: DU-145 prostate
MDA-MB-435 = system: MDA-MB-435
TK-10 renal = system: TK-10 renal
K-562 leukemia = system: K-562 leukemia
SW-620 colon = system: SW-620 colon
MOLT-4 leukemia = system: MOLT-4 leukemia
HL-60(TB) leukemia = system: HL-60(TB) leukemia

## CC(C)(O)c1cncc(-c2ccc3ncnc(N4CCc5cc(F)c(Cl)cc54)c3c2)c1
UACC-257 melanoma
  GI50: 3.96 µM
  TGI: > 100 µM
MALME-3M melanoma
  GI50: 1.52 µM
  TGI: > 100 µM
NCI-H460 lung
  GI50: 1.33 µM
  TGI: > 100 µM
T-47D breast
  GI50: 0.236 µM
  TGI: 4.08 µM
HT29 colon
  GI50: 0.908 µM
  TGI: > 100 µM
NCI-H522 lung
  GI50: 1.87 µM
  TGI: 85.2 µM
KM12 colon
  GI50: 5.86 µM
  TGI: > 100 µM
OVCAR-3 ovarian
  GI50: 2.27 µM
  TGI: > 100 µM
CCRF-CEM leukemia
  GI50: 2.32 µM
  TGI: > 100 µM
U251 CNS
  GI50: 6.75 µM
  TGI: > 100 µM
786-0 renal
  GI50: 0.722 µM
  TGI: 75.4 µM
HS 578T breast
  GI50: 0.754 µM
  TGI: 11.7 µM
SNB-75 CNS
  GI50: 0.407 µM
  TGI: 15.2 µM
OVCAR-5 ovarian
  GI50: 1.17 µM
  TGI: > 100 µM
HCT-116 colon
  GI50: 2.35 µM
  TGI: > 100 µM
SN12C renal
  GI50: 0.749 µM
  TGI: > 100 µM
M14 melanoma
  GI50: 4.89 µM
  TGI: > 100 µM
RXF 393 renal
  GI50: 0.432 µM
  TGI: 3.07 µM
HCC-2998 colon
  GI50: 2.36 µM
  TGI: > 100 µM
SNB-19 CNS
  GI50: 2.51 µM
  TGI: > 100 µM
SF-295 CNS
  GI50: 1.14 µM
  TGI: 23.1 µM
LOX IMVI melanoma
  TGI: 65.1 µM
OVCAR-8 ovarian
  GI50: 2.59 µM
  TGI: > 100 µM
HOP-62 NSCLC
  GI50: 1.19 µM
  TGI: > 100 µM
OVCAR-4 ovarian
  GI50: 1.35 µM
  TGI: > 100 µM
ACHN renal
  GI50: 0.572 µM
  TGI: > 100 µM
SK-MEL-28 melanoma
  GI50: 2.98 µM
  TGI: > 100 µM
CAKI-1 renal
  GI50: 0.388 µM
  TGI: > 100 µM
HOP-92 NSCLC
  GI50: 0.151 µM
  TGI: 0.827 µM
PC-3 prostate
  GI50: 0.775 µM
  TGI: > 100 µM
SR leukemia
  GI50: 1.52 µM
  TGI: > 100 µM
NCI/ADR-RES ovarian
  GI50: 1.59 µM
  TGI: > 100 µM
IGROV1 ovarian
  GI50: 0.235 µM
  TGI: 1.3 µM
SF-539 CNS
  GI50: 1.96 µM
  TGI: 84.5 µM
RPMI-8226 leukemia
  GI50: 1.99 µM
  TGI: > 100 µM
UACC-62 melanoma
  GI50: 0.543 µM
  TGI: > 100 µM
SF-268 CNS
  GI50: 3.22 µM
  TGI: > 100 µM
HCT-15 colon
  GI50: 1.11 µM
  TGI: > 100 µM
COLO 205 colon
  GI50: 3.52 µM
  TGI: > 100 µM
EKVX NSCLC
  GI50: 0.52 µM
  TGI: 9.12 µM
A498 renal
  GI50: 0.197 µM
  TGI: 1.17 µM
BT-549 breast
  GI50: 1.22 µM
  TGI: 8.89 µM
A549 NSCLC
  GI50: 0.773 µM
  TGI: > 100 µM
UO-31 renal
  GI50: 0.184 µM
  TGI: 74.2 µM
SK-MEL-5 melanoma
  GI50: 2.94 µM
  TGI: > 100 µM
SK-OV-3 ovarian
  GI50: 0.649 µM
  TGI: 12.2 µM
SK-MEL-2 melanoma
  GI50: 4.89 µM
  TGI: 66.6 µM
MCF7 breast
  GI50: 0.349 µM
  TGI: > 100 µM
NCI-H226 lung
  GI50: 3.46 µM
  TGI: > 100 µM
MDA-MB-231 breast
  GI50: 1.5 µM
  TGI: > 100 µM
DU-145 prostate
  GI50: 1.49 µM
  TGI: > 100 µM
MDA-MB-435
  GI50: 2.63 µM
  TGI: > 100 µM
TK-10 renal
  GI50: 0.417 µM
  TGI: > 100 µM

## CNC(=O)c1cc(-c2ccc(NC(=O)Nc3ccc(N4CCN(C)CC4)c(C(F)(F)F)c3)cc2)nc2cccnc12
UACC-257 melanoma
  GI50: 15.3 µM
  TGI: 28.8 µM
MALME-3M melanoma
  GI50: 1.68 µM
  TGI: 3.21 µM
NCI-H460 lung
  GI50: 3.19 µM
  TGI: 10.2 µM
T-47D breast
  GI50: 17 µM
  TGI: 43.4 µM
HT29 colon
  GI50: 1.92 µM
  TGI: 4.19 µM
NCI-H522 lung
  GI50: 16.5 µM
  TGI: 31.1 µM
KM12 colon
  GI50: 17.4 µM
  TGI: 43.3 µM
OVCAR-3 ovarian
  GI50: 9.59 µM
  TGI: 25.8 µM
CCRF-CEM leukemia
  GI50: 3.16 µM
  TGI: 74.2 µM
U251 CNS
  GI50: 3.43 µM
  TGI: 14.7 µM
786-0 renal
  GI50: 1.81 µM
  TGI: 3.52 µM
K-562 leukemia
  GI50: 2.12 µM
  TGI: 5.35 µM
HS 578T breast
  GI50: 15 µM
  TGI: 38.9 µM
SNB-75 CNS
  GI50: 14.9 µM
  TGI: 28.4 µM
SW-620 colon
  GI50: 2.11 µM
  TGI: 4.62 µM
OVCAR-5 ovarian
  GI50: 15.6 µM
  TGI: 29 µM
HCT-116 colon
  GI50: 4.09 µM
  TGI: 75.6 µM
SN12C renal
  GI50: 16.7 µM
  TGI: 34.7 µM
M14 melanoma
  GI50: 1.79 µM
  TGI: 3.71 µM
RXF 393 renal
  GI50: 3.38 µM
  TGI: 15 µM
HCC-2998 colon
  GI50: 18 µM
  TGI: 34.6 µM
SNB-19 CNS
  GI50: 16.9 µM
  TGI: 33.2 µM
SF-295 CNS
  GI50: 18 µM
  TGI: 36.9 µM
LOX IMVI melanoma
  GI50: 0.656 µM
  TGI: 24.5 µM
OVCAR-8 ovarian
  GI50: 17.4 µM
  TGI: 35.4 µM
HOP-62 NSCLC
  GI50: 16.4 µM
  TGI: 32.2 µM
OVCAR-4 ovarian
  GI50: 15.7 µM
  TGI: 31.6 µM
ACHN renal
  GI50: 15.5 µM
  TGI: 28.9 µM
SK-MEL-28 melanoma
  GI50: 1.67 µM
  TGI: 3.11 µM
CAKI-1 renal
  GI50: 16.1 µM
  TGI: 29.6 µM
HOP-92 NSCLC
  GI50: 6.54 µM
  TGI: > 100 µM
PC-3 prostate
  GI50: 15.1 µM
  TGI: 30.1 µM
SR leukemia
  GI50: 9.97 µM
  TGI: 44.6 µM
NCI/ADR-RES ovarian
  GI50: 14.2 µM
  TGI: 45.4 µM
IGROV1 ovarian
  GI50: 17.7 µM
  TGI: 36.6 µM
MOLT-4 leukemia
  GI50: 2.79 µM
  TGI: 14.9 µM
SF-539 CNS
  GI50: 13.6 µM
  TGI: 26.5 µM
RPMI-8226 leukemia
  GI50: 3.85 µM
  TGI: 25 µM
UACC-62 melanoma
  GI50: 18.4 µM
  TGI: 33.9 µM
SF-268 CNS
  GI50: 17.5 µM
  TGI: 39.2 µM
HCT-15 colon
  GI50: 2.07 µM
  TGI: 4.33 µM
COLO 205 colon
  GI50: 16.8 µM
  TGI: 32.8 µM
EKVX NSCLC
  GI50: 17.9 µM
  TGI: 33.9 µM
A498 renal
  GI50: > 100 µM
  TGI: > 100 µM
BT-549 breast
  GI50: 16.5 µM
  TGI: 35.3 µM
A549 NSCLC
  GI50: 10.9 µM
  TGI: 24.3 µM
UO-31 renal
  GI50: 15.3 µM
  TGI: 29.2 µM
HL-60(TB) leukemia
  GI50: 16.1 µM
  TGI: 38.7 µM
SK-MEL-5 melanoma
  GI50: 17.5 µM
  TGI: 31.7 µM
SK-OV-3 ovarian
  GI50: 18.5 µM
  TGI: 34.7 µM
SK-MEL-2 melanoma
  GI50: > 100 µM
  TGI: > 100 µM
MCF7 breast
  GI50: 1.67 µM
  TGI: 3.45 µM
NCI-H226 lung
  GI50: 18 µM
  TGI: 39.7 µM
MDA-MB-231 breast
  GI50: 17.5 µM
  TGI: 38.1 µM
DU-145 prostate
  GI50: 17.6 µM
  TGI: 35.6 µM
MDA-MB-435
  GI50: 1.75 µM
  TGI: 3.27 µM
TK-10 renal
  GI50: 18.5 µM
  TGI: 33.3 µM
